“Also recorded” adds a separate entry of the source.
How the values were obtained:
mice = assay: Von Frey test, repeated injury model (daily hind paw injection); assay type: in vivo, mouse
Procedure: Mice behavior: MA solution: MA was prepared in sterile Dulbecco's phosphate buffered saline, with 70 g/L fatty acid free bovine serum albumin (BSA; Sigma), and MA to a final concentration of 5 mM. The solution was filtered to avoid undissolved materials.
Subjects: For the experiment 8-12 weeks old male and female C57B16/J mice (N=12; control n=6; male=3, female=3) MA (n=6; male=3, female=3) per experiment were used. Mice were housed under a 12 hr light dark cycle and granted access to food and water ad libitum.
Injections were given as follows: Mouse is restrained by their tail, foot, and over shoulders scruff. The compound is delivered using a 3/10 cc insulin syringe into the plantar surface of the back foot of each mouse. The beveled needle is inserted at a 35-40° angle and 20-50 μl of the compound is injected subcutaneously. […]
Mechanical threshold (Von Frey test): Punctate mechanical allodynia was measured using Von Frey monofilaments (Stoelting, Inc.) in varying grams of force (0.008-1 g). Animals were placed in small enclosures over a wire mesh and the plantar of the hind paw was poked with a filament and responses were recorded. Withdrawal responses were recorded when the animal lifted, shook, or licked the paw in response to stimulus presentation. […]

endogenous PIEZO2 = target: T1, endogenous PIEZO2 (Homo sapiens, UniProt Q9H5I5); assay: Whole-cell patch-clamp of mechanically activated currents in human iPSC-derived neurons; assay type: cell-based
T1 construct: endogenous in cells; host or cells: sensory neurons differentiated from human WTC11 iPSC line
Source text: (§1) Human iPSC-derived neurons: For generating human peripheral sensory neuron cultures, a version of the healthy control WTC11 iPSC line was used. This line was previously engineered to harbor a doxycycline-inducible NGN2-BRN3A construct that enables rapid and efficient sensory neuron differentiation. Undifferentiated iPSCs were maintained in E8 flex medium (invitrogen) on polystyrene plates coated with Matrigel® (Corning). The medium was exchanged every 1-3 days, and the cells were passaged every 4-7 days with Accutase® (Invitrogen) and plated overnight with 10 μM of the ROCK-inhibitor Y-27632 (Tocris). For sensory neuron differentiation, iPSCs were seeded at 20,000 cells·(cm2)−1 in neural differentiation medium (NDM) on Matrigel®-coated plates. The cells were then re-plated after 48 hours at 50,000 cells·(cm^2)^−1 onto dishes coated with polyethylenimine (Sigma-Aldrich) and laminin (Invitrogen). NDM consisted of (all from Invitrogen) 1:1 DMEM/F12 and Neurobasal™ medium supplemented with N2, B27, and GlutaMAX™ at manufacturer-recommended dilution. 2 μg·ml^−1 doxycycline (Clontech) was included in the medium for the duration of the culture, 10 μM.

[1] = tested on: human iPSC-derived neurons; assay: Voltage-activated currents in human iPSC-derived neurons; assay type: cell-based; conditions: 300 μM vs control
Source text: as §1, with “μM. Y-27632 was supplemented for the first 48 hours, and the following neurotrophic factors were added from day 8 onward at 10 ng/ml each (all from R&D systems): BDNF, GDNF, β-NGF, and NT-3. […]” for “μM.”

[2] = tested on: mechano-activated currents of rat DRG neurons; assay: Whole-cell patch-clamp of mechano-activated currents in rat DRG neurons; conditions: 300 μM for 18 h
[3] = tested on: mechano-activated currents of mouse DRG neurons; assay: Whole-cell patch-clamp of mechano-activated currents in cultured mouse DRG neurons; conditions: 300 μM
Procedure: (§2) Cell culture and electrophysiology: Piezo1 knock-out mouse N2A (N2A^Piezo1−/−) cells were a gift from Dr. Gary R. Lewin, human Merkel cell carcinoma cell line (MCC13 cells; Cell Bank Australia reference number: CBA1338) were obtained from Sigma, and DRG neurons were obtained from sacrificed mice. N2A^Piezo1−/− cells were cultured in Dulbecco's Modified Eagle Medium (DMEM), 5% penicillin streptomycin and 10% fetal bovine serum (FBS); MCC13 cells were cultured in RPMI 1640 (with 2 mM L-glutamine+25 mM HEPES; Sigma), 5% penicillin-streptomycin and 10% FBS and; DRG neurons were cultured in DMEM, 1% penicillin-streptomycin, 1% MEM vitamin solution, 1% L-glutamine, and 10% horse serum. Prior to electrophysiological measurements, N2A^Piezo1−/−, MCC13 and DRG neurons were supplemented overnight (≈18 h) with MA. […] MA was obtained from Nu-Chek Prep, INC. The cultured cells were maintained at 37° C., 95% relative humidity, and 5% CO2.
For whole-cell recordings, the bath solution contained 140 mM NaCl, 6 mM KCl, 2 mM CaCl2), 1 mM MgCl2, 10 mM glucose, and 10 mM HEPES (pH 7.4; 300 mOsm). The pipette solution for voltage-clamp recordings contained: 140 mM CsCl, 5 mM EGTA, 1 mM CaCl2), 1 mM MgCl2, and 10 mM HEPES (pH 7.2); and for current clamp recordings: 140 mM KCl, 6 mM NaCl, 2 mM CaCl2), 1 mM MgCl2, 10 mM glucose, and 10 mM HEPES (pH 7.4; 300 mOsm); MA and bradykinin acetate salt (Sigma) perfused during experiments were dissolved in the bath solution to a final concentration of 300 μM for 2 min, and 1 μM for 5 min respectively; and for long exposure experiments bradykinin was supplemented to the culture medium and added to the cells 18-24 h prior recording. […] Pipettes were made out of borosilicate glass (Sutter Instruments) and were fire-polished before use until a resistance between 3 and 5 MΩ was reached.
During mechanical stimulation, currents were recorded at a constant voltage (−60 mV, voltage-clamp), and voltages were recorded without injecting current (current-clamp). Both variables were sampled at 100 kHz and low-pass filtered at 10 kHz using a MultiClamp™ 700 B amplifier and Clampex (Molecular Devices, LLC). […] In both cases, variables were sampled at 20 kHz and low-pass filtered at 10 kHz. Leak currents before mechanical stimulations were subtracted off-line from the current traces and data were digitally filtered at 2 kHz with ClampFit (Molecular Devices, LLC).
The blunt pipette was mounted on a micromanipulator at an ~45° angle and positioned 3-4 μm above from the cells without indenting them. Displacement measurements were obtained with a square-pulse protocol consisting of 1 μm incremental indentation steps, each lasting 200 ms with a 2-ms ramp in 10-s intervals. […]

PIEZO1 = PIEZO1 (Mus musculus, UniProt E2JF22); assay: Whole-cell patch-clamp with mechanical indentation of N2A cells expressing endogenous Piezo1; conditions: IC50 of inhibition of PIEZO1 currents, mean±SEM
Procedure: as §2
For whole-cell recordings, the bath solution contained 140 mM NaCl, 6 mM KCl, 2 mM CaCl2), 1 mM MgCl2, 10 mM glucose, and 10 mM HEPES (pH 7.4; 300 mOsm). […]
During mechanical stimulation, currents were recorded at a constant voltage (−60 mV, voltage-clamp), and voltages were recorded without injecting current (current-clamp). […]
Data analysis: Results were expressed as means±SD (unless otherwise noted). […]

[4] = also human Piezo2 in N2A^Piezo1−/− cells (FIG. 14c-d)

T1 sequence (Q9H5I5 whole entry): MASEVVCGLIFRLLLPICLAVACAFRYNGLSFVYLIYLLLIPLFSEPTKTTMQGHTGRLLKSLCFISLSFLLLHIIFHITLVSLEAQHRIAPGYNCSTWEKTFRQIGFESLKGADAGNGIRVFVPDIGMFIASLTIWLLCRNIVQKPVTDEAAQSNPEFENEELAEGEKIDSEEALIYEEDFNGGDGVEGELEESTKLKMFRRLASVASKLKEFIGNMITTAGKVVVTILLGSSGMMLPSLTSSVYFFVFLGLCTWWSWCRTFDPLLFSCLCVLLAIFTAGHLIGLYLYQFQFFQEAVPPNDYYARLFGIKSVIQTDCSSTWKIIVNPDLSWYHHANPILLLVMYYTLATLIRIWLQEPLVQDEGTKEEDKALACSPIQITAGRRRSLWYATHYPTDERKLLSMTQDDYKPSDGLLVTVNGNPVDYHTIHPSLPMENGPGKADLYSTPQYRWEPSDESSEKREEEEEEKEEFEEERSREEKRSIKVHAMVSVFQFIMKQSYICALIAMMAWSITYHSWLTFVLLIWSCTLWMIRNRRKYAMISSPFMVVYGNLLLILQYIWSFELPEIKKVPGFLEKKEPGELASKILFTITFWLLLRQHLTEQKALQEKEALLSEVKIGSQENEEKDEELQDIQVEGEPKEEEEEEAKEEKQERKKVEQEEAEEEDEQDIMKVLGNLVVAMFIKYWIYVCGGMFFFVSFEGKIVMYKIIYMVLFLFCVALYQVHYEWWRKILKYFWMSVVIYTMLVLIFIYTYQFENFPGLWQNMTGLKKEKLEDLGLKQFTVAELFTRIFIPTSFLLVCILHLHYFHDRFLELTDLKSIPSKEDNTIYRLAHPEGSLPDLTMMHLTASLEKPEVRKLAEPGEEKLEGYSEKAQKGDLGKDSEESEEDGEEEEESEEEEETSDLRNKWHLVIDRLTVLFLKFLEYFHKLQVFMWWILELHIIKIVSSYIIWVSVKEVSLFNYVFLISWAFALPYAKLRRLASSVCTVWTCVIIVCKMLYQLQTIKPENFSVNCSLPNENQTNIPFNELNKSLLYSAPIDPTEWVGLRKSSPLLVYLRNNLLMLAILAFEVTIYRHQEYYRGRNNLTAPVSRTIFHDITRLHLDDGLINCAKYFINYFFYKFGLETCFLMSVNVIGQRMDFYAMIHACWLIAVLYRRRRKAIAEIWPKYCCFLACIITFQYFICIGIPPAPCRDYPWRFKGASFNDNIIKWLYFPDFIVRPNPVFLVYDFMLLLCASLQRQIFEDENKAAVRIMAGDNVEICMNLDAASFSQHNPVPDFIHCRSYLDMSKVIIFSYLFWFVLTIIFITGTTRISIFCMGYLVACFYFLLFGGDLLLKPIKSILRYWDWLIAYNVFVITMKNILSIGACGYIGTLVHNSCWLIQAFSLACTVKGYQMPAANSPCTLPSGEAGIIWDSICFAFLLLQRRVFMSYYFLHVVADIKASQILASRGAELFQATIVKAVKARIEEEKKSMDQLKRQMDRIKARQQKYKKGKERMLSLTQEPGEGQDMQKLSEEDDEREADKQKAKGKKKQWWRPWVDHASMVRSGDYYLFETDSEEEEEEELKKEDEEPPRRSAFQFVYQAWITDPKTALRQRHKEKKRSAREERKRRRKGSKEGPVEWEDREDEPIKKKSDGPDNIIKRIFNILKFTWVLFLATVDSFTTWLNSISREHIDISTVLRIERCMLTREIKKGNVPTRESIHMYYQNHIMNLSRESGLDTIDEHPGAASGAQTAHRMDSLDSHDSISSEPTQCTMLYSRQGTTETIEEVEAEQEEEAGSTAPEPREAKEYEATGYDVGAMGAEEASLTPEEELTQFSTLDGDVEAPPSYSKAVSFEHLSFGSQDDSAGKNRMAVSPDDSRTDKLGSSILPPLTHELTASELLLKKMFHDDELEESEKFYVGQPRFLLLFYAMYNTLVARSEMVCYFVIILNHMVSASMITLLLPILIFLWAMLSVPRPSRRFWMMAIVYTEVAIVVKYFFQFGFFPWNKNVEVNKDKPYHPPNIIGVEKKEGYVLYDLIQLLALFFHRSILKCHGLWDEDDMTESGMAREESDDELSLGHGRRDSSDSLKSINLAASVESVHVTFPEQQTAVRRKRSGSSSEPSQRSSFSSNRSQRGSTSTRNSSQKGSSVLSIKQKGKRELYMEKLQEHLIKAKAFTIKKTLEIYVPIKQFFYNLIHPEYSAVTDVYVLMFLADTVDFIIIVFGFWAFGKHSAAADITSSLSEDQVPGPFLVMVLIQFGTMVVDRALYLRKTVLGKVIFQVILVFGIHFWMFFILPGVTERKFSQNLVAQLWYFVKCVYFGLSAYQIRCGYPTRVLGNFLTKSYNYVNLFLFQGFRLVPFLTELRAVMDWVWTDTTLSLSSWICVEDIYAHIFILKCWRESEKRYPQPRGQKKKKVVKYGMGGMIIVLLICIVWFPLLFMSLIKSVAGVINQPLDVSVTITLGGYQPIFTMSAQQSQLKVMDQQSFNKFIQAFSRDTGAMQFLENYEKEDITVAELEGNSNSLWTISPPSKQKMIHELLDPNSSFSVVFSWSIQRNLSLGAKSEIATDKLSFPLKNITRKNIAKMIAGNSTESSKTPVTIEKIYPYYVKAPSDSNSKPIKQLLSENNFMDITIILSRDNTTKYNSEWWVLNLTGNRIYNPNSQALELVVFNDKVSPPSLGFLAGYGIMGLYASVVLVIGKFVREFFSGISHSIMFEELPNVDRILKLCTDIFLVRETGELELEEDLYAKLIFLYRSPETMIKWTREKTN

CCCCCCCCCCCCCCCCC(=O)O [MA, heptadecanoic acid]
hypersensitivity to punctate touch (tactile allodynia) (mice; MA 5 mM injected daily into hind paw for 7 days): ameliorates hypersensitivity to touch after injury; also recorded: selectively decreases tactile allodynia; also recorded: protects against tactile allodynia; also recorded: do not develop; also recorded: failed to develop this type of heightened withdrawal response
baseline touch responses (mice; acute sub-dermal injection): had no effect on baseline touch responses
effect on PIEZO2 currents (endogenous PIEZO2; 50 μM each day for 5 days): significantly decreased PIEZO2 currents
effect on endogenous PIEZO2 currents (endogenous PIEZO2; 300 and 600 μM overnight): significantly reduced endogenous PIEZO2 currents
mechanical threshold needed to activate the human channel (endogenous PIEZO2; [4]): increased the mechanical threshold needed to activate the human channel
time constant of inactivation (endogenous PIEZO2; [4]): without altering the time constant of inactivation
voltage-activated inward Na+ and outward K+ currents [1]: did not change voltage-activated inward Na+ and outward K+ currents
effect on mechano-activated currents [2]: decreases mechano-activated currents in rat DRG neurons; also recorded: inhibit all mechanosensitive currents
effect on displacement threshold [3]: increasing the displacement threshold
effect on mechano-evoked currents ([3]; rapidly, intermediate and slowly inactivating currents): inhibit all mechanosensitive currents; also recorded: decreases mechano-activated currents; also recorded: decreased the current magnitude of all DRG neurons mechano-evoked currents
IC50 (PIEZO1; MA 1-300 μM 18 h): 28.3 ± 3.4 µM
IC50 (PIEZO1; latrunculin A-treated cells, MA 1-300 μM 18 h plus latrunculin A): 25.6 µM

From US12714688B2, “Margaric acid decreases PIEZ02-mediated pain” (The United States of America, as represented by The …, priority 2020, dated 2026)
